Biological target: T1, human PAH with the R408W mutation (Homo sapiens, UniProt P00439, R408W)
T1 construct: expressed in transfected cells
T1 sequence (P00439 1-452 R408W): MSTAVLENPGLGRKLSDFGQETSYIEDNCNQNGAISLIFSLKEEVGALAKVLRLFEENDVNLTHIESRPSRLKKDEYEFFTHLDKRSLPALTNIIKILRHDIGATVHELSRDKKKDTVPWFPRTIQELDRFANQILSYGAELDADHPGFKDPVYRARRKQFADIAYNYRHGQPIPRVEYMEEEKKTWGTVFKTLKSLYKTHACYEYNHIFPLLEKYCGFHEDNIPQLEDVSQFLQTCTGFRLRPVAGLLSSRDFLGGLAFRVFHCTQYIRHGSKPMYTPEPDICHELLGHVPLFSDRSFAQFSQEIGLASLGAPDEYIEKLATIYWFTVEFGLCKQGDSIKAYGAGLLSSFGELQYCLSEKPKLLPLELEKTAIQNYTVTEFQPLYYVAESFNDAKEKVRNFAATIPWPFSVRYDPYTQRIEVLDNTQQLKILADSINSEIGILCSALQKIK
Assay: Cell Based Phenylalanine Flux Assay;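 further: after compound treatment, cells received sepiapterin plus isotope-labelled Phenylalanine for 4 hours, then labelled Tyrosine in the medium was quantified, 10-point 2-fold dilution series run in duplicate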
Conditions: A375 cells expressing R408W PAH; 24 hrs with compound, then 20 µM sepiapterin and 800 µM 13C9,15N-Phenylalanine for 4 hours; 13C-Tyrosine by LC-MS; average where tested multiple times; read-out: AC50

Compared with `Cc1cccc2cc(C3c4nc[nH]c4CCN3C(=O)c3nc(C(F)(F)F)nn3C)nn12` (centres unmarked), `CC(C)(F)c1nnc(C(=O)N2CCc3[nH]cnc3C2c2cc3cc(F)ccn3n2)o1` (centres unmarked) is lower in AC50: over 5000 nM for the first, 1000 to 5000 nM for the second.

Compared with `CC(C)(O)c1cc(C(=O)N2CCc3[nH]cnc3C2c2cc3ccccn3n2)no1` (centres unmarked), `CC(C)(O)c1nnc(C(=O)N2CCc3[nH]cnc3C2c2cc3c(C(F)F)cccn3n2)o1` (centres unmarked) is lower in AC50: over 5000 nM for the first, 1000 to 5000 nM for the second.

`CN1CCN(c2nnc(C(=O)N3CCc4[nH]cnc4C3c3cc4c(F)cccn4n3)o2)CC1` (centres unmarked) showed an AC50 of 1000 to 5000 nM.

Same assay, conditions: A375 cells expressing human PAH R408W; 24 hrs compound incubation; 13C-Tyrosine by LC-MS; average where tested multiple times; read-out: AC50

Compared with `Cc1cccn2nc([C@@H]3c4nc[nH]c4CCN3C(=O)c3cnc(-c4cnn(C)c4)o3)cc12` [Example 1960, (S)-(2-(1-methyl-1H-pyrazol-4-yl)oxazol-5-yl)(4-(4-methylpyrazolo[1,5-a]pyridin-2-yl)-1,4,6,7-tetrahydro-5H-imidazo[4,5-c]pyridin-5-yl)methanone], `Cc1cccn2nc([C@H]3c4nc[nH]c4CCN3C(=O)c3cnc(-c4ccccn4)o3)cc12` [Example 1965, (R)-(4-(4-methylpyrazolo[1,5-a]pyridin-2-yl)-1,4,6,7-tetrahydro-5H-imidazo[4,5-c]pyridin-5-yl)(2-(pyridin-2-yl)oxazol-5-yl)methanone] is higher in AC50: 500 to 1000 nM for the first, over 5000 nM for the second.

Compared with `CC(C)c1cccn2nc([C@@H]3c4nc[nH]c4CCN3C(=O)c3nnc(-c4ccn(C(F)(F)F)n4)o3)cc12` [Example 1984, (S)-(4-(4-isopropylpyrazolo[1,5-a]pyridin-2-yl)-1,4,6,7-tetrahydro-5H-imidazo[4,5-c]pyridin-5-yl)(5-(1-(trifluoromethyl)-1H-pyrazol-3-yl)-1,3,4-oxadiazol-2-yl)methanone], `O=C(c1nnc(-c2ccn(C(F)(F)F)n2)o1)N1CCc2[nH]cnc2[C@@H]1c1cc2c(C3CC3)cccn2n1` [Example 1881, (R)-(4-(4-cyclopropylpyrazolo[1,5-a]pyridin-2-yl)-1,4,6,7-tetrahydro-5H-imidazo[4,5-c]pyridin-5-yl)(5-(1-(trifluoromethyl)-1H-pyrazol-3-yl)-1,3,4-oxadiazol-2-yl)methanone] is higher in AC50: under 500 nM for the first, over 5000 nM for the second.

First: O=C(c1cnc(C2CC2)o1)N1CCc2[nH]cnc2[C@H]1c1cc2c(C(F)F)cccn2n1 [Example 2102, (S)-(2-cyclopropyloxazol-5-yl)(4-(4-(difluoromethyl)pyrazolo[1,5-a]pyridin-2-yl)-1,4,6,7-tetrahydro-5H-imidazo[4,5-c]pyridin-5-yl)methanone]
Second: FC(F)Oc1cccn2nc([C@@H]3c4nc[nH]c4CCN3c3nnc(C4CC4)o3)cc12 [Example 2509, (S)-2-cyclopropyl-5-(4-(4-(difluoromethoxy)pyrazolo[1,5-a]pyridin-2-yl)-1,4,6,7-tetrahydro-5H-imidazo[4,5-c]pyridin-5-yl)-1,3,4-oxadiazole]
The AC50 of the first is lower: under 500 nM for the first, 1000 to 5000 nM for the second.

First: Cc1cccc(-c2nnc(N3CCc4[nH]cnc4[C@H]3c3cc4c(C(F)F)cccn4n3)o2)n1 [Example 2347, (S)-2-(4-(4-(difluoromethyl)pyrazolo[1,5-a]pyridin-2-yl)-1,4,6,7-tetrahydro-5H-imidazo[4,5-c]pyridin-5-yl)-5-(6-methylpyridin-2-yl)-1,3,4-oxadiazole]
Second: Cc1cccnc1-c1nnc(N2CCc3[nH]cnc3[C@@H]2c2cc3c(C(F)(F)F)cccn3n2)o1 [Example 2277, (R)-2-(3-methylpyridin-2-yl)-5-(4-(4-(trifluoromethyl)pyrazolo[1,5-a]pyridin-2-yl)-1,4,6,7-tetrahydro-5H-imidazo[4,5-c]pyridin-5-yl)-1,3,4-oxadiazole]
The AC50 of the first is lower: 500 to 1000 nM for the first, over 5000 nM for the second.

Compared with `CC(C)(C)c1nnc(C(=O)N2CCc3[nH]cnc3[C@@H]2c2cc3c(C4CC4)cccn3n2)o1` [Example 1841, (R)-(5-(tert-butyl)-1,3,4-oxadiazol-2-yl)(4-(4-cyclopropylpyrazolo[1,5-a]pyridin-2-yl)-1,4,6,7-tetrahydro-5H-imidazo[4,5-c]pyridin-5-yl)methanone], `CC(C)c1cccn2nc([C@@H]3c4nc[nH]c4CCN3C(=O)c3nnc(-c4cnn(C)c4)o3)cc12` [Example 1886, (S)-(4-(4-isopropylpyrazolo[1,5-a]pyridin-2-yl)-1,4,6,7-tetrahydro-5H-imidazo[4,5-c]pyridin-5-yl)(5-(1-methyl-1H-pyrazol-4-yl)-1,3,4-oxadiazol-2-yl)methanone] is lower in AC50: over 5000 nM for the first, under 500 nM for the second.

First: Cc1cccn2nc([C@H]3c4nc[nH]c4CCN3C(=O)c3nc4ccccc4s3)cc12 [Example 2503, (R)-benzo[d]thiazol-2-yl(4-(4-methylpyrazolo[1,5-a]pyridin-2-yl)-1,4,6,7-tetrahydro-5H-imidazo[4,5-c]pyridin-5-yl)methanone]
Second: COc1ccc2c(C(=O)N3CCc4[nH]cnc4[C@H]3c3cc4c(C)cccn4n3)cnn2c1 [Example 2450, (S)-(6-methoxypyrazolo[1,5-a]pyridin-3-yl)(4-(4-methylpyrazolo[1,5-a]pyridin-2-yl)-6,7-dihydro-1H-imidazo[4,5-c]pyridin-5(4H)-yl)methanone]
The AC50 of the first is higher: over 5000 nM for the first, 1000 to 5000 nM for the second.

Same assay, conditions: A375 cells expressing human R408W PAH; 24 hrs compound incubation; 13C-Tyrosine by LC-MS; average where tested multiple times; read-out: AC50

Compared with `Cc1cccc2cc([C@H]3c4nc[nH]c4CCN3C(=O)c3nnc(C(C)(C)C)o3)nn12` [Example 1021, (R)-(5-(tert-butyl)-1,3,4-oxadiazol-2-yl)(4-(7-methylpyrazolo[1,5-a]pyridin-2-yl)-6,7-dihydro-1H-imidazo[4,5-c]pyridin-5(4H)-yl)methanone], `Cc1nc(C(C)(C)O)oc1C(=O)N1CCc2[nH]cnc2[C@H]1c1cc2cccc(Cl)n2n1` [Example 1210, (S)-(4-(7-chloropyrazolo[1,5-a]pyridin-2-yl)-6,7-dihydro-1H-imidazo[4,5-c]pyridin-5(4H)-yl)(2-(2-hydroxypropan-2-yl)-4-methyloxazol-5-yl)methanone] is lower in AC50: 1000 to 5000 nM for the first, 500 to 1000 nM for the second.

First: O=C(c1cnn2ccccc12)N1CCc2[nH]cnc2[C@H]1c1cc2c(C(F)(F)F)cccn2n1 [Example 1270, (S)-pyrazolo[1,5-a]pyridin-3-yl(4-(4-(trifluoromethyl)pyrazolo[1,5-a]pyridin-2-yl)-6,7-dihydro-1H-imidazo[4,5-c]pyridin-5(4H)-yl)methanone]
Second: O=C(c1cnn2ccccc12)N1CCc2[nH]cnc2[C@@H]1c1cc2ccccn2n1 [Example 601, (R)-(4-(pyrazolo[1,5-a]pyridin-2-yl)-6,7-dihydro-1H-imidazo[4,5-c]pyridin-5(4H)-yl)(pyrazolo[1,5-a]pyridin-3-yl)methanone]
The AC50 of the first is lower: under 500 nM for the first, over 5000 nM for the second.

First: O=C(c1ocnc1C(F)F)N1CCc2[nH]cnc2[C@H]1c1cc2c(F)cccn2n1 [Example 758, (S)-(4-(difluoromethyl)oxazol-5-yl)(4-(4-fluoropyrazolo[1,5-a]pyridin-2-yl)-6,7-dihydro-1H-imidazo[4,5-c]pyridin-5(4H)-yl)methanone]
Second: O=C(c1cnco1)N1CCc2[nH]cnc2[C@H]1c1cc2c(F)cccn2n1 [Example 760, (S)-(4-(4-fluoropyrazolo[1,5-a]pyridin-2-yl)-6,7-dihydro-1H-imidazo[4,5-c]pyridin-5(4H)-yl)(oxazol-5-yl)methanone]
The AC50 of the first is lower: under 500 nM for the first, 1000 to 5000 nM for the second.

Compared with `COc1cccn2nc([C@@H]3c4nc[nH]c4CCN3C(=O)c3cnn4cc(C5CC5)ccc34)cc12` [Example 1788, (S)-(6-cyclopropylpyrazolo[1,5-a]pyridin-3-yl)(4-(4-methoxypyrazolo[1,5-a]pyridin-2-yl)-6,7-dihydro-1H-imidazo[4,5-c]pyridin-5(4H)-yl)methanone], `Cc1cccn2nc([C@@H]3c4nc[nH]c4CCN3C(=O)c3ncnn3C)cc12` [Example 838, (S)-(1-methyl-1H-1,2,4-triazol-5-yl)(4-(4-methylpyrazolo[1,5-a]pyridin-2-yl)-6,7-dihydro-1H-imidazo[4,5-c]pyridin-5(4H)-yl)methanone] is lower in AC50: 500 to 1000 nM for the first, under 500 nM for the second.

First: Cc1cccn2nc([C@H]3c4nc[nH]c4CCN3C(=O)c3nnc(-c4cc(C)n(C)n4)o3)cc12 [Example 855, (R)-(5-(1,5-dimethyl-1H-pyrazol-3-yl)-1,3,4-oxadiazol-2-yl)(4-(4-methylpyrazolo[1,5-a]pyridin-2-yl)-6,7-dihydro-1H-imidazo[4,5-c]pyridin-5(4H)-yl)methanone]
Second: Cn1ccc(-c2nnc(C(=O)N3CCc4[nH]cnc4[C@@H]3c3cc4cccc(F)n4n3)o2)n1 [Example 1457, (R)-(4-(7-fluoropyrazolo[1,5-a]pyridin-2-yl)-6,7-dihydro-1H-imidazo[4,5-c]pyridin-5(4H)-yl)(5-(1-methyl-1H-pyrazol-3-yl)-1,3,4-oxadiazol-2-yl)methanone]
The AC50 of the first is higher: over 5000 nM for the first, 1000 to 5000 nM for the second.

`O=C(c1nnc(-c2ccccn2)o1)N1CCc2[nH]cnc2[C@H]1c1cc2cccc(C(F)F)n2n1` [Example 1421, (S)-(4-(7-(difluoromethyl)pyrazolo[1,5-a]pyridin-2-yl)-6,7-dihydro-1H-imidazo[4,5-c]pyridin-5(4H)-yl)(5-(pyridin-2-yl)-1,3,4-oxadiazol-2-yl)methanone] and `Cn1ccc(-c2nnc(C(=O)N3CCc4[nH]cnc4[C@H]3c3cc4cccc(C(F)(F)F)n4n3)o2)n1` [Example 1030, (S)-(5-(1-methyl-1H-pyrazol-3-yl)-1,3,4-oxadiazol-2-yl)(4-(7-(trifluoromethyl)pyrazolo[1,5-a]pyridin-2-yl)-6,7-dihydro-1H-imidazo[4,5-c]pyridin-5(4H)-yl)methanone] cannot be ordered by AC50: under 500 nM for the first, under 500 nM for the second.
